Data reported in the supplement of paper PMC4977894.
± gives the standard deviation of the averaged measurements.

Columns and labels:
[1] = test system: Homo sapiens (human subject panel, olfactory perception); assay: perceived odor intensity rating (rating 0-100); higher = stronger perceived smell
Summary of the method: (§1)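 Fifty-five healthy human subjects aged 18–50 took part, and the six lowest performers were excluded. Each molecule was diluted in paraffin oil at high and low concentrations, and 1 mL was sniffed in randomized order over ten visits of 100 stimuli each. Subjects who reported smelling a stimulus rated it on a computerized slider that started at 50 and had to be moved, with positions converted to a 0–100 scale. The familiarity, intensity and pleasantness values are averages across subjects.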

[2] = test system: Homo sapiens (human subject panel, olfactory perception); assay: perceived odor familiarity rating (rating 0-100); higher = more familiar
Summary of the method: as §1

[3] = test system: Homo sapiens (human subject panel, olfactory perception); assay: perceived odor pleasantness rating (rating 0-100); higher = more pleasant
Summary of the method: as §1

[4] = odor dilution in paraffin oil: 1/10
[5] = odor dilution in paraffin oil: 1/1,000
[6] = odor dilution in paraffin oil: 1/100,000
[7] = odor dilution in paraffin oil: 1/10,000,000

SMILES | perceived odor intensity rating [1, 4] | perceived odor intensity rating [1, 5] | perceived odor familiarity rating [2, 4] | perceived odor familiarity rating [2, 5] | perceived odor pleasantness rating [3, 4] | perceived odor pleasantness rating [3, 5] | perceived odor intensity rating [1, 6] | perceived odor familiarity rating [2, 6] | perceived odor pleasantness rating [3, 6] | perceived odor intensity rating [1, 7] | perceived odor familiarity rating [2, 7] | perceived odor pleasantness rating [3, 7]
C=CCCCCCCCCC(=O)OCCCC [Butyl 10-undecenoate] | 58.1 ± 30 | 31.9 ± 33 | 50 ± 30 | 44.4 ± 32 | 35.1 ± 27 | 42.2 ± 19 | – | – | – | – | – | –
CC(=O)c1nccs1 [2-Acetylthiazole] | – | 80 ± 20 | – | 69.3 ± 28 | – | 46.3 ± 31 | 76.3 ± 17 | 58.3 ± 31 | 47.7 ± 30 | – | – | –
OC/C=C/c1ccccc1 [Cinnamyl alcohol] | – | – | – | – | – | – | 6 | 52 | 32 | – | – | –
C/C=C/C(=O)[C@H](C)CC [5-Methyl-2-hepten-4-one] | – | – | – | – | – | – | 69.2 ± 27 | 45.1 ± 31 | 45.3 ± 28 | 26 ± 28 | 40.8 ± 31 | 64.7 ± 25
C1CCCCC1 [Cyclohexane] | 57.4 ± 34 | 49 ± 34 | 55.1 ± 29 | 51.6 ± 32 | 48.2 ± 27 | 40.5 ± 24 | – | – | – | – | – | –
CC(C)=CCCC(C)=CC#N [3,7-Dimethyl-2,6-octadienenitrile] | – | 75.1 ± 22 | – | 67.1 ± 29 | – | 64.5 ± 28 | 46.2 ± 28 | 48.4 ± 34 | 60.3 ± 23 | – | – | –
c1ccc2ncccc2c1 [Quinoline] | – | 80.7 ± 18 | – | 47.7 ± 34 | – | 22.4 ± 24 | 56.4 ± 27 | 41.4 ± 26 | 34.1 ± 24 | – | – | –
O=C1CCCCC1 [Cyclohexanone] | – | 69.9 ± 22 | – | 52.5 ± 28 | – | 38 ± 27 | 19.6 ± 27 | 26.7 ± 25 | 47.9 ± 23 | – | – | –
COc1cc(C(C)=O)ccc1O [Acetovanillone] | 64 ± 28 | 35 ± 32 | 47.6 ± 29 | 41 ± 30 | 45.7 ± 25 | 55.1 ± 21 | – | – | – | – | – | –
COc1ccc(COC(C)=O)cc1 [Anisyl acetate] | – | 59.4 ± 26 | – | 52.8 ± 29 | – | 69.8 ± 21 | 31.7 ± 26 | 39.3 ± 30 | 48.7 ± 25 | – | – | –
CC(C)=CCC/C(C)=C\CO [Nerol] | – | 71.1 ± 22 | – | 60.3 ± 30 | – | 61.4 ± 24 | 24.3 ± 27 | 39.8 ± 33 | 48.8 ± 28 | – | – | –
CC/C=C\CCC=O [cis-4-Heptenal] | – | – | – | – | – | – | 66.8 ± 29 | 46.1 ± 33 | 28.7 ± 25 | 56.2 ± 31 | 45.2 ± 31 | 32.5 ± 26
CCCCCCCC(=O)OCCCCC [N-Amyl octanoate] | – | 37.1 ± 26 | – | 42.3 ± 27 | – | 48.4 ± 23 | 19.5 ± 28 | 25.1 ± 28 | 58.8 ± 24 | – | – | –
C=CCc1ccc(O)c(OC)c1 [eugenol] | – | 74.6 ± 21 | – | 73.6 ± 26 | – | 67.6 ± 23 | 60.4 ± 26 | 59.6 ± 32 | 61.8 ± 25 | – | – | –
C=C(C)[C@H]1CC=C(C)CC1 [d-Limonene] | – | 29.6 ± 26 | – | 43.6 ± 28 | – | 52.6 ± 21 | 45.4 ± 36 | 41.1 ± 28 | 30.9 ± 25 | – | – | –
O=C1CCCCCC1 [Cycloheptanone] | – | 69 ± 28 | – | 52.7 ± 30 | – | 40.8 ± 28 | 26.4 ± 28 | 35.8 ± 30 | 55 ± 19 | – | – | –
Cc1ccc(C(C)C)c(O)c1 [thymol] | – | 71.1 ± 23 | – | 55.8 ± 32 | – | 41.8 ± 27 | 39.2 ± 30 | 49.7 ± 29 | 48.5 ± 24 | – | – | –
OCCCCCc1ccccc1 [5-Phenyl-1-pentanol] | – | 53.4 ± 30 | – | 49.2 ± 29 | – | 53.6 ± 22 | 17.2 ± 22 | 34.5 ± 32 | 56.8 ± 23 | – | – | –

SMILES | perceived odor intensity rating [1, 4] | perceived odor intensity rating [1, 5] | perceived odor familiarity rating [2, 4] | perceived odor familiarity rating [2, 5] | perceived odor pleasantness rating [3, 4] | perceived odor pleasantness rating [3, 5] | perceived odor intensity rating [1, 6] | perceived odor familiarity rating [2, 6] | perceived odor pleasantness rating [3, 6] | perceived odor intensity rating [1, 7] | perceived odor familiarity rating [2, 7] | perceived odor pleasantness rating [3, 7]
COc1ccc(C(C)=O)cc1 [Acetanisole] | 82.2 ± 16 | 44.1 ± 28 | 56.5 ± 30 | 50 ± 26 | 53.3 ± 28 | 68.8 ± 19 | – | – | – | – | – | –
CCCCCCCOC(C)=O [heptyl acetate] | 82.2 ± 18 | 37.1 ± 31 | 55.8 ± 34 | 42.6 ± 31 | 53.4 ± 32 | 61.6 ± 22 | – | – | – | – | – | –
C=C1CCC2CC1C2(C)C (single isomer, unassigned; (-)) [(-)-beta-Pinene] | 74.2 ± 22 | 32.2 ± 31 | 62.1 ± 31 | 47.8 ± 29 | 50.5 ± 30 | 54.8 ± 22 | – | – | – | – | – | –
CC1=CC(=O)CC(C)(C)C1 [Isophorone] | – | 60.1 ± 25 | – | 50.2 ± 35 | – | 51.5 ± 25 | 21.6 ± 24 | 40.4 ± 28 | 54.3 ± 24 | – | – | –
CCCCCCCCOC(=O)C(C)C [Octyl isobutyrate] | – | 29.9 ± 26 | – | 38.9 ± 27 | – | 55.8 ± 21 | 17.7 ± 20 | 36 ± 31 | 53.4 ± 20 | – | – | –
CC(C)O [Isopropyl alcohol] | – | 11.8 ± 18 | – | 29.4 ± 29 | – | 41.1 ± 24 | 21.9 ± 23 | 36.5 ± 28 | 38.3 ± 18 | – | – | –
CCCCCCCCOC(=O)CC(C)C [Octyl isovalerate] | – | 28.9 ± 33 | – | 35.1 ± 30 | – | 39.4 ± 22 | 23.4 ± 28 | 38.3 ± 33 | 54.1 ± 21 | – | – | –
COc1ccc(C=O)cc1OC [Veratraldehyde] | 74.1 ± 23 | 35.2 ± 29 | 75.1 ± 26 | 53 ± 28 | 75.3 ± 22 | 62.4 ± 22 | – | – | – | – | – | –
c1ccncc1 [pyridine] | – | – | – | – | – | – | 21.5 ± 23 | 33.7 ± 29 | 46.8 ± 24 | 13 ± 21 | 28 ± 28 | 54.2 ± 25
CC(=O)OC/C=C(\C)CCC=C(C)C [geranyl acetate] | – | – | – | – | – | – | 16.3 ± 19 | 36.4 ± 31 | 54.4 ± 19 | 20.4 ± 24 | 38.7 ± 32 | 47.9 ± 25
CCCCN [Butylamine] | – | – | – | – | – | – | 16.3 ± 22 | 36 ± 29 | 50.8 ± 27 | 21.8 ± 24 | 32.7 ± 27 | 44.4 ± 25
CC12CCC(CC1=O)C2(C)C [D-Camphor] | 89.8 ± 17 | 63.8 ± 31 | 81 ± 26 | 68.5 ± 25 | 52.1 ± 30 | 52.3 ± 28 | – | – | – | – | – | –
CCCCCC(=O)CCCCC [6-Undecanone] | – | 43.3 ± 30 | – | 43.3 ± 31 | – | 49.5 ± 27 | 8.22 ± 16 | 32.9 ± 32 | 52.7 ± 29 | – | – | –
CC1CCC(=O)O1 (configuration not stated) [gamma-valerolactone] | – | 26.9 ± 30 | – | 38.9 ± 31 | – | 51.4 ± 25 | 14.7 ± 20 | 29.3 ± 28 | 51.3 ± 22 | – | – | –
CCOC(=O)CC(C)O (configuration not stated) [ethyl-3-hydroxybutyrate] | – | 58.1 ± 32 | – | 62 ± 31 | – | 75.4 ± 18 | 38.3 ± 32 | 37.4 ± 29 | 42 ± 23 | – | – | –
CC(=O)OCCC1=CCC2CC1C2(C)C (configuration not stated) [Nopol acetate] | – | 53.6 ± 29 | – | 54.9 ± 30 | – | 70.6 ± 21 | 40.7 ± 28 | 52.7 ± 31 | 66.6 ± 25 | – | – | –
COC(=O)c1ccccc1 [methyl benzoate] | – | – | – | – | – | – | 36.1 ± 30 | 35.1 ± 32 | 45.9 ± 23 | 14.2 ± 22 | 38 ± 32 | 47.8 ± 23
